Reference: article PMC7997411, “Discovery and Optimization of Selective Inhibitors of Meprin α (Part II)” (Pharmaceuticals, 2021)
“And” between values parts separate entries of the source, which are not always exact repeats. Equal entries are not always repeated. Where two headings read alike, the source gives them in different places.

Key:
Assay type in all cases: biochemical
meprin α = target: T1, meprin α (Homo sapiens, UniProt Q16819); assay: Meprin α assay in a 384-well plate (fluorogenic substrate Mca-YVADAPK-K(Dnp))
T1 construct: Strep-tag; made in house; host or cells: BTI-TN-5B1-4 insect cells (baculovirus, amplified in Sf9)
T1 sequence (Q16819 66-746): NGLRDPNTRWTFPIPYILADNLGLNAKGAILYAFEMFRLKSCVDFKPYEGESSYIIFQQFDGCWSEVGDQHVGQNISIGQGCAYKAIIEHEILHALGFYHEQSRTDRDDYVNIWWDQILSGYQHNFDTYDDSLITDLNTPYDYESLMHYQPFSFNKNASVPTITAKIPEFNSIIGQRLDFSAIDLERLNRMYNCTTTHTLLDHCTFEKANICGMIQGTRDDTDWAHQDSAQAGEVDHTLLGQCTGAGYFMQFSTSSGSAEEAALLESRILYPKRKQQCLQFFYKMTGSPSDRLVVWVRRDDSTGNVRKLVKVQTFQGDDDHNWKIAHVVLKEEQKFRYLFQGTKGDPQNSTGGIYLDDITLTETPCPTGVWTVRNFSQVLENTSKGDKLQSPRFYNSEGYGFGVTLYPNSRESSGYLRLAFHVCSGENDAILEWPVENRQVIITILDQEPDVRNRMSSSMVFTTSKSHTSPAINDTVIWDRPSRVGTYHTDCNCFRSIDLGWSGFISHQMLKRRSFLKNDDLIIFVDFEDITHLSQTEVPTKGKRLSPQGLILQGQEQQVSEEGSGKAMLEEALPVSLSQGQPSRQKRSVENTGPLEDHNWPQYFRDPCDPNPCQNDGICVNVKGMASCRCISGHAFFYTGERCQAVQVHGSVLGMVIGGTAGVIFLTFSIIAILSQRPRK
Description: Recombinant human meprin α and meprin β were expressed using the Bac-to-Bac expression system (Gibco Life Technologies, Paisley, UK) as described before. Media and supplements were obtained from Gibco Life Technologies. Recombinant Baculoviruses were amplified in adherently growing Spodoptera frugiperda (Sf)9 insect cells at 27 °C in Grace’s insect medium supplemented with 10% fetal bovine serum, 50 units/mL penicillin, and 50 μg/mL streptomycin. Protein expression was performed in 500 mL suspension cultures of BTI-TN-5B1-4 insect cells growing in Express Five SFM supplemented with 4 mM glutamine, 50 units/mL penicillin, and 50 μg/mL streptomycin in Fernbach-flasks using a Multitron orbital shaker (INFORS AG, Bottmingen, Switzerland). Cells were infected at a density of 2 × 10^6 cells/mL with an amplified viral stock at a MOI of ~10. […] Meprins were activated by trypsin, which was removed afterwards by affinity chromatography using a column containing immobilized chicken ovomucoid, a trypsin inhibitor.
Both assays followed the same general protocol. […] After 30 min incubation at RT, the reactions were started by addition of 5 µL of 2× solutions of substrates (20 µM, meprin α Mca-YVADAPK-K(Dnp), and for meprin β Mca-EDEDED-K(Dnp)).

MMP14 = target: T2, MMP14 (Homo sapiens, UniProt P50281); assay: MMP assay (fluorogenic substrate ES010)
T2 construct: purchased R&D Systems 918-MP
Description: (§1) MMP-1, MMP-2, MMP-8, MMP-9, MMP-10, MMP-13, MMP-14, ADAM10, ADAM17 and Mca-KPLGL-Dpa-AR-NH2 fluorogenic peptide substrate were purchased from R&D Systems (cat # 901-MP, 902-MP, 908-MP, 911-MP, 910-MP, 511-MM, 918-MP, 936-AD, 930-ADB, and ES010, respectively). All common chemicals were purchased from Sigma. NFF449 was purchased from Tocris (cat# 1391) and actinonin was from Sigma-Aldrich, St. Louis, MO, USA (cat# 01809).
(§2) All assays followed the same general protocol. 5 µL of 2× enzyme solution (5 nM) in assay buffer (50 mM Tricine, 50 mM NaCl, 10 mM CaCl2, 0.05% Brij-35, pH 7.5) were added to solid-bottom black 384 plates (Nunc, cat# 264705). Next, test compounds and pharmacological controls were added to corresponding wells using a 384-pin tool device (V&P Scientific, San Diego). After 30 min incubation at RT, the reactions were started by addition of 5 µL of 2× solutions of MMP substrate (R&D Systems cat#: ES010, 20 µM). Reactions were incubated at RT for 1 h, after which the fluorescence was measured using the Synergy H4 multimode microplate reader (Biotek Instruments) (λexcitation = 324 nm, λemission = 390 nm). All compounds were tested in 10-point, 1:3 serial dilutions dose-response format starting with highest concentration of 100 µM. IC50 values were determined using non-linear regression analysis using the GraphPad Prism 8.0 suite of programs.

MMP8 = target: T3, MMP8 (Homo sapiens, UniProt P22894); assay: MMP assay (fluorogenic substrate ES010)
T3 construct: purchased R&D Systems 908-MP
Description: as §1, §2

MMP13 = target: T4, MMP13 (Homo sapiens, UniProt P45452); assay: MMP assay (fluorogenic substrate ES010)
T4 construct: purchased R&D Systems 511-MM
Description: as §1, §2

MMP9 = target: T5, MMP9 (Homo sapiens, UniProt P14780); assay: MMP assay (fluorogenic substrate ES010)
T5 construct: purchased R&D Systems 911-MP
Description: as §1, §2

MMP2 = target: T6, MMP2 (Homo sapiens, UniProt P08253); assay: MMP assay (fluorogenic substrate ES010)
T6 construct: purchased R&D Systems 902-MP
T6 sequence (P08253 110-660): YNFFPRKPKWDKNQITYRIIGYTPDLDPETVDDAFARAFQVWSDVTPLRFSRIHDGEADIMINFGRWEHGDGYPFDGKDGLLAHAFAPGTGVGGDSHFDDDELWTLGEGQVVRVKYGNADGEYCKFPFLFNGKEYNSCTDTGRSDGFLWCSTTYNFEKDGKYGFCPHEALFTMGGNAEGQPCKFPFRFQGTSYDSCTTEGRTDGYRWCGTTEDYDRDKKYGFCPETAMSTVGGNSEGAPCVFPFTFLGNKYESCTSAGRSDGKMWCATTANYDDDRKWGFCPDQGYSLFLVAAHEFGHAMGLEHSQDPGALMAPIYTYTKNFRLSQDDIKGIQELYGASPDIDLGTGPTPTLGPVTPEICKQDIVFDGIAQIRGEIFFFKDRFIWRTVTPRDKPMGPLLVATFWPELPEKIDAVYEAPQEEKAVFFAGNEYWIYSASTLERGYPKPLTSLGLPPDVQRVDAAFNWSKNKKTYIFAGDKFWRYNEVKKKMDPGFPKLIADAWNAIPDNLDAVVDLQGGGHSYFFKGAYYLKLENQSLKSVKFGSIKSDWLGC
Description: as §1, §2

T5 sequence (P14780 94-707): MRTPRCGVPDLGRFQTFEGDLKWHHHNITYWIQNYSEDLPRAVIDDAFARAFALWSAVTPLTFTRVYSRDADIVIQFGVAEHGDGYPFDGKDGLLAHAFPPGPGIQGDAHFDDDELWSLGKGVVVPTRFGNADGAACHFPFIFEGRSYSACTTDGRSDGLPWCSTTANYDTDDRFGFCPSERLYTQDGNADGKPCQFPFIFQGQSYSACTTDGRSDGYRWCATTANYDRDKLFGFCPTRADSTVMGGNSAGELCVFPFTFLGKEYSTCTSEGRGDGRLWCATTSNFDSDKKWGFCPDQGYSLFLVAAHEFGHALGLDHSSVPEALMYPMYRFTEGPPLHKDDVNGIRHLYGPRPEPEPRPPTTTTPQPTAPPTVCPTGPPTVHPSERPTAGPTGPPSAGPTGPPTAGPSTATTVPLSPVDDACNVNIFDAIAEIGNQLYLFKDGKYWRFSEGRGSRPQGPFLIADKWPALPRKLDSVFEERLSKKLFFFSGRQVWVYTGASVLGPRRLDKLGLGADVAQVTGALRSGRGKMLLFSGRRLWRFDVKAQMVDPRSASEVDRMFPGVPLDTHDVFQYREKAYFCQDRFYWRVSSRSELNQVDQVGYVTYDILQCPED
T3 sequence (P22894 101-467): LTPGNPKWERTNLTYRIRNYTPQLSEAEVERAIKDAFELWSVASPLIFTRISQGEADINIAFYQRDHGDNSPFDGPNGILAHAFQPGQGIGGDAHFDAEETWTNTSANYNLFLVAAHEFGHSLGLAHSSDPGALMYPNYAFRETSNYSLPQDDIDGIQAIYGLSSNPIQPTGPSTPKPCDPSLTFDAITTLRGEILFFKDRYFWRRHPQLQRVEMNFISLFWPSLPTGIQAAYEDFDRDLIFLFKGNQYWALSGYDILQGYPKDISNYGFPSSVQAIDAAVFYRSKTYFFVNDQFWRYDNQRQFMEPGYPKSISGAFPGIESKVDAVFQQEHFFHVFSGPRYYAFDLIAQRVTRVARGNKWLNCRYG

Row | IC50 (meprin α; triplicate, ± SD) | IC50 (MMP14) | IC50 (MMP8) | IC50 (MMP13) | IC50 (MMP9) | IC50 (MMP2) | IC50 (meprin α) | fold more potent than the HTS hit SR19855 in binding meprin α (meprin α) | meprin α/β fold selectivity (ratio of IC50 values) (meprin α; meprin α over meprin β) | extent of meprin α inhibition (in words) (meprin α; scale-up batch, higher doses tested, Figure 4A) | SMILES
1 | 0.004 µM | > 1000 µM | 0.19 µM | 0.1 µM | 0.1 ± 0.01 µM | 0.09 µM | – | – | – | – | CCCCC[C@H](CC(=O)NO)C(=O)N[C@H](C(=O)N1CCC[C@H]1CO)C(C)C [Actinonin, actinonin, reference compound]
2 | 0.66 ± 0.03 µM | > 100 µM | > 100 µM | > 100 µM | > 100 µM | > 100 µM | 0.49 to 0.67 µM | ~ 2 fold | > 100 fold and 106 fold and ~ 106 fold | full meprin α inhibition | COc1cc(OC)nc(SCc2nnc(SCC(=O)NO)n2-c2ccc(N(C)C)cc2)n1 [SR24717]
